These results are taken from patent publication US20250257059A1, “PROTEIN TYROSINE PHOSPHATASE INHIBITORS AND USES THEREOF” (Nerio Therapeutics, Inc., priority 2022, published 2025).

Assay [1] concerns murine B16F10 melanoma cell line. Briefly: B16F10 IFNγ-induced cellular growth inhibition assay (xCELLigence RTCA). Format: cell-based. Conditions: Mus musculus, B16-F10, 48 h, B16F10 cells, 1 ng/mL mouse IFNγ, AUC of growth curve, read-out: B16 IFNγ Mediated Growth Inhibition Assay: AVG IC50. The protocol:
Compound activity was determined using an interferon gamma (IFNγ)-induced cellular growth inhibition assay with the murine B16F10 melanoma cell line on an Agilent xCELLigence Real-Time Cell Analysis platform (RTCA). RTCA E-Plate View 96 plates (Agilent, 300601010) were pre-equilibrated with 50 μL of assay media (DMEM+10% FBS, Gibco 10566-024, Gibco 10082-147) at 37° C. in a humidified incubator before taking an initial measurement of impedance (sweep). B16F10 cells cultured in assay media were dissociated with TrypLE Express (Gibco 12605-010) for five minutes at 37° C., diluted in 3 volumes of assay buffer, centrifuged for 5 minutes at 500×g at room temperature before diluting cells to 7,700 cells/mL in assay media, plating 130 μL/well (1,000 cells/well) in the inner 60 wells of the assay plate, and adding 150 μL of assay media to the outer wells of the plate. Cells were incubated at room temperature for 20 min to allow cells to settle before placing them in the xCELLigence reader and incubating overnight at 37° C., sweeping wells every 15 minutes. After 24 hours, well readings were paused, plates were removed from the incubator and compounds were added using a Tecan D300e dispenser. All wells were normalized to a final concentration of 0.5% DMSO. Following a 30 min incubation at 37° C., recombinant mouse IFNγ (R&D Systems™ 485MI100) was diluted to 10 ng/mL in assay media and 20 μL was added to assay wells (1 ng/mL final concentration). Assay plates were placed in the xCELLigence reader and swept every 15 minutes.

Assay [2] has as its target full-length human PTPN2 (TC45) (1-387) (Homo sapiens (Human), UniProt P17706). Briefly: Enzymatic assay used to determine potency of PTPN2 inhibitors (full length PTPN2 DiFMUP assay). Format: biochemical. The conditions noted are these: 0.5 nM PTPN2, 100 μM DiFMUP, 30 min at room temperature. The protocol:
Compound activity was determined in an in vitro enzymatic assay using untagged, full-length human PTPN2 (TC45) (1-387) protein. PTPN2 was produced in E. coli as a GST-TEV fusion and the GST was removed by TEV digestion, followed by additional purification to yield full-length PTPN2 (SEQ ID 1). PTPN2 enzyme was diluted in assay buffer (50 mM HEPES pH7.5, 0.2 mM EDTA, 1 mM DTT, 0.02% Brij-35, 0.02% BSA) to a final concentration of 0.5 nM and added to black 384-well non-binding plates (Greiner, 781900). Compounds were subsequently added using a Tecan D300e dispenser. Following a 10 min incubation at room temperature, DiFMUP substrate (ThermoFisher, D22065) was added to a final concentration of 100 μM. Plates were transferred to a SpectraMax plate reader (Molecular Devices) and fluorescence intensity was measured (ex 358, em 455) after a 30 min incubation at room temperature. […] A four-parameter curve fit was used to determine IC50 values from % inhibition data.

Sequence of full-length human PTPN2 (TC45) (1-387) (P17706 other isoform, or with tags, fused parts or gaps): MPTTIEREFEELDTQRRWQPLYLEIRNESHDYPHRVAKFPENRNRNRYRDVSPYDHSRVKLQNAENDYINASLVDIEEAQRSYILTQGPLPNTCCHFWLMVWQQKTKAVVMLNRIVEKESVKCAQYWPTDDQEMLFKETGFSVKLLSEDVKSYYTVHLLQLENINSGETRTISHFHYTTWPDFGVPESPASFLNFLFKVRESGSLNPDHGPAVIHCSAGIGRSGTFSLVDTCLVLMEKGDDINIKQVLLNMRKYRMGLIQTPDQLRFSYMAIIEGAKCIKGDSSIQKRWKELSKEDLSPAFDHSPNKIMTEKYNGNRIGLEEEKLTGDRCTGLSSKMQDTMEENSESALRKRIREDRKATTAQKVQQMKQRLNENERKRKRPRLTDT

Broadly, the IC50 is the concentration that gives 50% inhibition. On to `CC(C)(C)CCN1CCC(Cc2cc(O)c(N3CC(=O)NS3(=O)=O)c(F)c2)C1` (stereo not drawn) [Example 23], for which the values for the concentration for half-maximal inhibition (IC50) in assay [1] and in assay [2] were 4330 nM and 14 nM, respectively.
Take `CC(C)CC1CCN(Cc2cc(O)c(N3CC(=O)NS3(=O)=O)c(F)c2)C1` (stereo not drawn) [Example 72]: the concentration for half-maximal inhibition (IC50) was found to be 8440 nM in assay [1] and 66 nM in assay [2].
As for `CCN1CCCC(Cc2cc(O)c(N3CC(=O)NS3(=O)=O)c(F)c2)C1` (stereo not drawn) [Example 51], the values for the 50% inhibitory concentration (IC50) in assay [1] and in assay [2] were 27600 nM and 63 nM, respectively.
Take `CCC1CCN(CCc2cc(O)c(N3CC(=O)NS3(=O)=O)c(F)c2)C1` (stereo not drawn) [Example 87]: the IC50 came to 299 nM in assay [1] and 3 nM in assay [2].
Consider `CC(C)CC1CCN(CCc2cc(O)c(N3CC(=O)NS3(=O)=O)c(F)c2)C1` (stereo not drawn) [Example 85], for which the half-maximal inhibitory concentration (IC50) in assay [1] was found to be 331 nM; in assay [2], 2 nM.
Regarding `O=C1CN(c2c(O)cc(CCN3CCC4(CCOCC4)C3)cc2F)S(=O)(=O)N1` [Example 113], the concentration for half-maximal inhibition (IC50) in assay [1] was determined as 216 nM.
For the molecule `CC(C)CCCN1CCCCC1Cc1ccc(O)c(N2CC(=O)NS2(=O)=O)c1F` (stereo not drawn) [Example 79], the IC50 in assay [1] worked out at 3450 nM.
For the molecule `CC(C)(C)CCN1CCCC(Cc2cc(O)c(N3CC(=O)NS3(=O)=O)c(F)c2)C1` (stereo not drawn) [Example 35], the IC50 in assay [1] is 13000 nM; in assay [2], 31 nM.
Regarding `CC(C)CN1CCC(Cc2cc(O)c(N3CC(=O)NS3(=O)=O)c(F)c2)C1` (stereo not drawn) [Example 9], the IC50 in assay [1] is 13200 nM; in assay [2], 21 nM.
For `CC(C)CCN1CCCC1CCc1cc(O)c(N2CC(=O)NS2(=O)=O)c(F)c1` (stereo not drawn) [Example 67], in that order: over 100000 nM and 36 nM.
For `O=C1CN(c2c(O)cc(CCN3CCC4(CC3)CC4)cc2F)S(=O)(=O)N1` [Example 107], the results for the IC50 in assay [1] and in assay [2] were 256 nM and 2 nM, respectively.
For `CC(C)CCC1CCN(CCc2cc(O)c(N3CC(=O)NS3(=O)=O)c(F)c2)C1` (stereo not drawn) [Example 88], in that order: 1020 nM and 3 nM.
For `O=C1CN(c2c(O)cc(CCN3CC4(CCCC4)C3)cc2F)S(=O)(=O)N1` [Example 114], the IC50 in assay [1] was determined as 371 nM; in assay [2] it was 7 nM.
Regarding `CN1CCCC(Cc2cc(O)c(N3CC(=O)NS3(=O)=O)c(F)c2)CC1` (stereo not drawn) [Example 60], the results for the IC50 in assay [1] and in assay [2] were over 73000 nM and 24 nM, respectively.
The molecule `O=C1CN(c2c(O)cc(C[C@@H]3CCNC3)cc2F)S(=O)(=O)N1` (single isomer, unassigned) [Example 26] returned an IC50 in assay [2] of 8 nM.
Turning to `O=C1CN(c2c(O)cc(CCN3CC[C@@H](C(F)(F)F)C3)cc2F)S(=O)(=O)N1` [Example 122], the IC50 in assay [1] was 2670 nM.
`O=C1CN(c2c(O)cc(CCN3CCC4(CC4)C3)cc2F)S(=O)(=O)N1` [Example 131]: the IC50 in assay [1] turned out to be 489 nM; in assay [2] it was 1 nM.
The like results for `O=C1CN(c2c(O)cc(CC3CCCN(CC4CCNCC4)C3)cc2F)S(=O)(=O)N1` (stereo not drawn) [Example 44] were, in that order, 38000 nM and 4 nM.
The like results for `O=C1CN(c2c(O)cc(CC3CNC3)cc2F)S(=O)(=O)N1` [Example 69, 5-(4-(azetidin-3-ylmethyl)-2-fluoro-6-hydroxyphenyl)-1,2,5-thiadiazolidin-3-one 1,1-dioxide] were, in that order, 13600 nM and 15 nM.
The like results for `O=C1CN(c2c(O)cc(C[C@@H]3CCCNCC3)cc2F)S(=O)(=O)N1` (single isomer, unassigned) [Example 59] were, in that order, over 47000 nM and 16 nM.
As for `CCCC1CCCN1Cc1cc(O)c(N2CC(=O)NS2(=O)=O)c(F)c1` (stereo not drawn) [Example 70, 5-(2-fluoro-6-hydroxy-4-((2-propylpyrrolidin-1-yl)methyl)phenyl)-1,2,5-thiadiazolidin-3-one 1,1-dioxide], the figures for the IC50 in assay [1] and in assay [2] were over 45000 nM and 204 nM, respectively.
For `O=C1CN(c2c(O)cc(CC3CCN(CC4CCC4)C3)cc2F)S(=O)(=O)N1` (stereo not drawn) [Example 22], in that order: 1230 nM and 10 nM.
For the molecule `O=C1CN(c2c(O)cc(CC3CCN(CC4CCCO4)C3)cc2F)S(=O)(=O)N1` (stereo not drawn) [Example 14], the figures for the half-maximal inhibitory concentration (IC50) in assay [1] and in assay [2] were 52800 nM and 14 nM, respectively.
As to `O=C1CN(c2c(O)cc(CC3CCN(CC4CCCC4)C3)cc2F)S(=O)(=O)N1` (stereo not drawn) [Example 21], the half-inhibitory concentration (IC50) in assay [1] was determined as 4590 nM; in assay [2], 15 nM.
For `O=C1CN(c2c(O)cc(CC3CCN(Cc4ccn[nH]4)C3)cc2F)S(=O)(=O)N1` (stereo not drawn) [Example 18], in that order: over 58000 nM and 7 nM.
For `CC(C)[C@H]1CCN(CCc2cc(O)c(N3CC(=O)NS3(=O)=O)c(F)c2)C1` [Example 135], the 50% inhibitory concentration (IC50) in assay [1] amounted to 290 nM.
`O=C1CN(c2c(O)cc(CCN3Cc4ccccc4C3)cc2F)S(=O)(=O)N1` [Example 128]: in assay [1], the 50% inhibitory concentration (IC50) came to 610 nM.
Regarding `CCCCCCN1CCCC(Cc2cc(O)c(N3CC(=O)NS3(=O)=O)c(F)c2)C1` (stereo not drawn) [Example 36], the 50% inhibitory concentration (IC50) stood at 81000 nM in assay [1] and 22 nM in assay [2].
In the case of `C[C@H]1CCN(CCc2cc(O)c(N3CC(=O)NS3(=O)=O)c(F)c2)C1` [Example 139], the IC50 is 509 nM in assay [1] and 2 nM in assay [2].
Regarding `O=C1CN(c2c(O)cc(CCN3CC[C@H](F)C3)cc2F)S(=O)(=O)N1` [Example 94], the IC50 in assay [1] is 469 nM; in assay [2], 2 nM.
For `CC(C)CCN1CCCC[C@@H]1Cc1ccc(O)c(N2CC(=O)NS2(=O)=O)c1F` (single isomer, unassigned) [Example 81], in that order: 363 nM and 3 nM.
Regarding `COC[C@@H]1CCN(CCc2cc(O)c(N3CC(=O)NS3(=O)=O)c(F)c2)C1` [Example 117], in assay [1], the half-inhibitory concentration (IC50) came to 331 nM.
The molecule `O=C1CN(c2c(O)cc(CC3CCCN(Cc4cocn4)C3)cc2F)S(=O)(=O)N1` (stereo not drawn) [Example 47] registered an IC50 in assay [2] of 98 nM.
With `CC1(C)CN(CCc2cc(O)c(N3CC(=O)NS3(=O)=O)c(F)c2)C1` [Example 127], the IC50 in assay [1] was 657 nM.
The same measure, in the same setting: the same measure for `O=C1CN(c2c(O)cc(CCN3CCCC(F)C3)cc2F)S(=O)(=O)N1` (stereo not drawn) [Example 97]: 1540 nM; for `O=C1CN(c2c(O)cc(CCN3CCC4(CCCC4)C3)cc2F)S(=O)(=O)N1` [Example 112]: 165 nM.
Consider `O=C1CN(c2c(O)cc(CCN3CC(F)C3)cc2F)S(=O)(=O)N1` [Example 136], for which, in assay [1], the IC50 stood at 937 nM.
In assay [2], `CN1CCC(Cc2cc(O)c(N3CC(=O)NS3(=O)=O)c(F)c2)C1` (stereo not drawn) [Example 1, 5-(2-fluoro-6-hydroxy-4-((1-methylpyrrolidin-3-yl)methyl)phenyl)-1,2,5-thiadiazolidin-3-one 1,1-dioxide] had a 50% inhibitory concentration (IC50) of 7 nM.
In assay [2], `O=C1CN(c2c(O)ccc(CC3CCCCN3)c2F)S(=O)(=O)N1` (stereo not drawn) [Example 75] returned a 50% inhibitory concentration (IC50) of 20 nM.
Turning to `CC(C)C[C@@H]1CCN(CCc2cc(O)c(N3CC(=O)NS3(=O)=O)c(F)c2)C1` [Example 120], in assay [1], the concentration for half-maximal inhibition (IC50) was determined as 2640 nM.
With `COC1CCN(CCc2cc(O)c(N3CC(=O)NS3(=O)=O)c(F)c2)CC1` [Example 104], the half-maximal inhibitory concentration (IC50) in assay [1] turned out to be 723 nM.
Regarding `O=C1CN(c2c(O)cc(CCN3CC(C(F)(F)F)C3)cc2F)S(=O)(=O)N1` [Example 137], in assay [1], the half-inhibitory concentration (IC50) amounted to 2160 nM.
In the case of `CC(C)(C)C1CCN(CCc2cc(O)c(N3CC(=O)NS3(=O)=O)c(F)c2)C1` (stereo not drawn) [Example 111], the half-inhibitory concentration (IC50) in assay [1] amounted to 130 nM.
The same measure, in the same setting: in the case of `CC(C)[C@@H]1CCN(CCc2cc(O)c(N3CC(=O)NS3(=O)=O)c(F)c2)C1` [Example 134] it was 516 nM; in that of `O=C1CN(c2c(O)cc(CC3CCN(Cc4ccco4)C3)cc2F)S(=O)(=O)N1` (stereo not drawn) [Example 7], 2470 nM.
Consider `O=C1CN(c2c(O)cc(C[C@H]3CCNC3)cc2F)S(=O)(=O)N1` (single isomer, unassigned) [Example 25], for which the IC50 in assay [2] came out at 15 nM.
Turning to `O=C1CN(c2c(O)ccc(CC3CCCCN3CCC3CCCC3)c2F)S(=O)(=O)N1` (stereo not drawn) [Example 80], in assay [1], the IC50 amounted to 22700 nM.
Turning to `O=C1CN(c2c(O)cc(CC3CCCNCC3)cc2F)S(=O)(=O)N1` (stereo not drawn) [Example 57], in assay [2], the concentration for half-maximal inhibition (IC50) was 15 nM.
For the molecule `O=C1CN(c2c(O)cc(CCN3CCOCC3)cc2F)S(=O)(=O)N1` [Example 89], the IC50 in assay [1] stood at 8910 nM.
Same read-out and setting: the same measure for `CC1CN(CCc2cc(O)c(N3CC(=O)NS3(=O)=O)c(F)c2)C1` [Example 140]: 472 nM.
